From DBAASP
Values after ≈ are worked out from the molar mass of the structure shown. Values joined by “and” are separate entries in the source; they are usually repeats but may differ in a detail not shown here. Equal values may be shown once. One block for each compound: values may come before it.

Assays:
Test in all cases: ≥ marks a high value that may be exact or a test limit, other limits are often not marked, values filed in µg/mL are converted to µM
[1] = tested on: Escherichia coli ATCC 25726
[2] = tested on: Staphylococcus aureus ATCC 9144
[3] = tested on: Acinetobacter baumannii ATCC 17978
[4] = tested on: Acinetobacter baumannii AYE
[5] = tested on: Pseudomonas aeruginosa PAO1
[6] = tested on: Staphylococcus aureus ATCC 25923
[7] = tested on: Candida albicans ATCC 90028
[8] = tested on: Klebsiella pneumoniae M6
[9] = tested on: Staphylococcus aureus USA 300
[10] = tested on: Klebsiella pneumoniae NCTC 13368
[11] = tested on: Escherichia coli NCTC 12923
[12] = tested on: Escherichia coli LEC001
[13] = tested on: Staphylococcus aureus NCTC 13616
[14] = tested on: Pseudomonas aeruginosa NCTC 13437
[15] = tested on: Mannheimia haemolytica
[16] = tested on: Leuconostoc mesenteroides
[17] = tested on: Escherichia coli
[18] = tested on: Enterococcus faecalis
[19] = tested on: Staphylococcus aureus
[20] = tested on: Micrococcus luteus
[21] = tested on: Streptococcus uberis
[22] = tested on: Bacillus cereus
[23] = tested on: Batrachochytrium dendrobatidis
[24] = tested on: Pseudomonas aeruginosa 3320
[25] = tested on: Listeria monocytogenes KCTC 3710
[26] = tested on: Candida albicans F7-39/IDE99
[27] = tested on: Bacillus subtilis 168
[28] = tested on: Staphylococcus aureus 547582
[29] = tested on: Staphylococcus aureus ATCC 29213
[30] = tested on: Escherichia coli ATCC 25922
[31] = tested on: Pseudomonas aeruginosa ATCC 15692
[32] = tested on: Pseudomonas aeruginosa ATCC 27853
[33] = tested on: Escherichia coli B
[34] = tested on: Enterococcus faecium 091299
[35] = tested on: Psychrobacter faecalis X29
[36] = tested on: Rhodococcus rhodochrous X15
[37] = tested on: Bacillus licheniformis X39
[38] = tested on: Staphylococcus carnosus KHS
[39] = tested on: Candida albicans ATCC 2002
[40] = tested on: Enterococcus faecalis 981
[41] = tested on: Acinetobacter baumannii I NM8
[42] = tested on: Pseudomonas aeruginosa PAO239
[43] = tested on: Stenotrophomonas maltophilia
[44] = tested on: Candida albicans NCTC 3179
[45] = tested on: Fusobacterium nucleatum NCTC 10562
[46] = tested on: Enterococcus faecalis NCTC 12697
[47] = tested on: Streptococcus mutans ATCC 10449
[48] = tested on: Klebsiella pneumoniae ATCC 700603

Compound: CSCC[C@H](N=C(O)[C@H](CC(C)C)N=C(O)CN)C(O)=N[C@@H](CO)C(O)=N[C@H](C(O)=N[C@@H](CC(C)C)C(O)=NCC(O)=N[C@@H](Cc1cnc[nH]1)C(O)=N[C@@H](C)C(O)=N[C@H](C(O)=NCC(O)=N[C@@H](CC(=N)O)C(O)=N[C@H](C(O)=N[C@@H](CC(C)C)C(O)=NCC(O)=NCC(O)=N[C@@H](CC(C)C)C(O)=N[C@@H](Cc1ccccc1)C(O)=N[C@@H](CCCCN)C(=O)N1CCC[C@H]1C(O)=N[C@@H](CCCCN)C(=O)O)C(C)C)C(C)C)C(C)C [GLMSVLGHAVGNVLGGLFKPKS]
- MIC [15]: 0.367 µM (≈ 0.768 µg/mL)
- MIC [16]: 11.5 µM (≈ 24 µg/mL)
- MIC [17]: 22.9 µM (≈ 48 µg/mL)
- MIC [18]: ≥ 68.8 µM
- MIC [19]: 45.8 µM (≈ 96 µg/mL)
- MIC [20]: 0.688 µM (≈ 1.44 µg/mL)
- MIC [21]: 22.9 µM (≈ 48 µg/mL)
- MIC [22]: 5.73 µM (≈ 12 µg/mL)
- MIC [23]: ≥ 100 µM

Compound: CSCC[C@H](NC(=O)CNC(=O)[C@H](Cc1ccccc1)NC(=O)CN)C(=O)N[C@@H](C)C(=O)N[C@@H](CC(C)C)C(=O)N[C@@H](CCCCN)C(=O)N[C@@H](CC(C)C)C(=O)N[C@@H](CC(C)C)C(=O)N[C@@H](CCCCN)C(=O)N[C@@H](CCCCN)C(=O)N[C@H](C(=O)N[C@@H](CC(C)C)C(N)=O)C(C)C [GFGMALKLLKKVL]
- MIC [24]: 8 µM (≈ 11.3 µg/mL)
- MIC [25]: 25 µM (≈ 35.4 µg/mL)
- MIC [26]: 6.3 µM (≈ 8.93 µg/mL)
- MIC [27]: 1.3 µM (≈ 1.84 µg/mL)
- MIC [28]: 8 µM (≈ 11.3 µg/mL)
- MIC [19]: 3.7 µM and 4.43 µM
- MIC [6]: 3.13 µM (≈ 4.43 µg/mL)
- MIC [29]: 3.13 µM (≈ 4.43 µg/mL)
- MIC [30]: 6.25 µM (≈ 8.86 µg/mL)
- MIC [31]: 6.25 µM (≈ 8.86 µg/mL)
- MIC [32]: 6.25 µM (≈ 8.86 µg/mL)
- MIC [33]: 3 µM (≈ 4.25 µg/mL)

Compound: CC[C@H](C)[C@H](NC(=O)[C@H](CC(C)C)NC(=O)[C@@H]1CCCN1C(=O)[C@H](CC(C)C)NC(=O)[C@@H](N)Cc1ccccc1)C(=O)N[C@@H](C)C(=O)N[C@@H](CO)C(=O)N[C@@H](CC(C)C)C(=O)N[C@@H](C)C(=O)N[C@@H](C)C(=O)N[C@@H](CC(N)=O)C(=O)N[C@@H](Cc1ccccc1)C(=O)N[C@H](C(=O)N1CCC[C@H]1C(=O)N[C@@H](CCCCN)C(=O)N[C@H](C(=O)N[C@@H](Cc1ccccc1)C(=O)N[C@H]1CSSC[C@@H](C(=O)O)NC(=O)[C@H](CCCCN)NC(=O)[C@H](CCCCN)NC(=O)[C@H]([C@@H](C)O)NC(=O)[C@H]([C@@H](C)CC)NC(=O)[C@H](CCCCN)NC1=O)[C@@H](C)CC)C(C)C [FLPLIASLAANFVPKIFCKITKKC]
- MIC [34]: 19 µM (≈ 50.6 µg/mL)
- MIC [35]: 4.8 µM (≈ 12.8 µg/mL)
- MIC [36]: 1.2 µM (≈ 3.2 µg/mL)
- MIC [6]: 1.2 µM (≈ 3.2 µg/mL)
- MIC [30]: 150 µM (≈ 400 µg/mL)
- MIC [37]: 2.4 µM (≈ 6.39 µg/mL)
- MIC [38]: 4.8 µM (≈ 12.8 µg/mL)
- MIC [39]: 2.4 µM (≈ 6.39 µg/mL)
- MIC [40]: 19 µM (≈ 50.6 µg/mL)

Continued, values first:

- MIC [1]: 3 µM (≈ 8.64 µg/mL)
- MIC [2]: 1.39 µM (≈ 4 µg/mL)
- MIC [3]: 1.39 µM (≈ 4 µg/mL)
- MIC [4]: 1.39 µM (≈ 4 µg/mL)
- MIC [5]: > 44.5 µM
- MIC [6]: 6 µM (≈ 17.3 µg/mL)
- MIC [7]: 25 µM (≈ 72 µg/mL)
- MIC [8]: 5.56 µM (≈ 16 µg/mL)
- MIC [9]: 2.78 µM (≈ 8 µg/mL)
- MIC [10]: 11.1 µM (≈ 32 µg/mL)
- MIC [11]: 2.78 µM (≈ 8 µg/mL)
- MIC [12]: 2.78 µM (≈ 8 µg/mL)
- MIC [13]: 1.39 µM (≈ 4 µg/mL)
- MIC [14]: ≥ 44.5 µM
Compound: CSCC[C@H](NC(=O)[C@H](CCSC)NC(=O)[C@H](CCCCN)NC(=O)CNC(=O)[C@@H](NC(=O)[C@@H](NC(=O)[C@H](CCCCN)NC(=O)[C@H](CC(C)C)NC(=O)CNC(=O)[C@H](Cc1ccccc1)NC(=O)[C@H](CCCCN)NC(=O)[C@H](Cc1ccccc1)NC(=O)[C@H](C)NC(=O)[C@H](CCCCN)NC(=O)CNC(=O)[C@H](CC(C)C)NC(=O)[C@H](CC(C)C)NC(=O)[C@H](CO)NC(=O)CNC(=O)[C@H](CC(C)C)NC(=O)CN)[C@@H](C)O)C(C)C)C(=O)NCC(=O)NCC(=O)N[C@@H](C)C(=O)N1CCC[C@H]1C(=O)N[C@@H](CCCN=C(N)N)C(=O)N[C@@H](CCC(=O)O)C(=O)N[C@@H](CCC(N)=O)C(=O)O [GLGSLLGKAFKFGLKTVGKMMGGAPREQ]

- MIC [41]: 6 µM (≈ 9.74 µg/mL)
- MIC [42]: 25 µM (≈ 40.6 µg/mL)
- MIC [43]: 4 µM (≈ 6.49 µg/mL)
- MIC [44]: ≥ 50 µM
- MIC [45]: 6.25 µM (≈ 10.1 µg/mL)
- MIC [6]: 6 µM (≈ 9.74 µg/mL)
- MIC [46]: ≥ 100 µM
- MIC [30]: 12.5 µM (≈ 20.3 µg/mL)
- MIC [47]: 3.1 µM (≈ 5.03 µg/mL)
- MIC [32]: 25 µM (≈ 40.6 µg/mL)
- MIC [48]: 25 µM (≈ 40.6 µg/mL)
Compound: CC[C@H](C)[C@H](NC(=O)[C@H](CCCCN)NC(=O)[C@H](CC(C)C)NC(=O)[C@H](C)NC(=O)[C@H](CCCCN)NC(=O)CNC(=O)[C@H](CC(C)C)NC(=O)[C@@H](NC(=O)[C@H](CO)NC(=O)CNC(=O)[C@H](CC(C)C)NC(=O)CN)C(C)C)C(=O)NCC(=O)N[C@@H](C)C(=O)N[C@@H](CC(N)=O)C(=O)N[C@@H](CC(C)C)C(=O)N[C@@H](CC(C)C)C(N)=O [GLGSVLGKALKIGANLL]
